This passage reports IC50 results from ChEMBL document CHEMBL1201862, “PubChem BioAssay data set” (2004).

The IC50 is the concentration at which inhibition is half-maximal.

The assay concerns the target Envelope glycoprotein gp160 (Human immunodeficiency virus 1, UniProt Q6QLK5). The assay can be described thus: cell-free HIV fusion peptide-binding blockers – biochemical, uHTS, fluorescence dequenching, […] (AID 1986).

Activity calls are given as the source filed them. No stated cut-off is given here; in the data, actives have a measured IC50 and inactives only a lower limit.

Envelope glycoprotein gp160, sequence (Q6QLK5 whole entry, the tested form may be a part): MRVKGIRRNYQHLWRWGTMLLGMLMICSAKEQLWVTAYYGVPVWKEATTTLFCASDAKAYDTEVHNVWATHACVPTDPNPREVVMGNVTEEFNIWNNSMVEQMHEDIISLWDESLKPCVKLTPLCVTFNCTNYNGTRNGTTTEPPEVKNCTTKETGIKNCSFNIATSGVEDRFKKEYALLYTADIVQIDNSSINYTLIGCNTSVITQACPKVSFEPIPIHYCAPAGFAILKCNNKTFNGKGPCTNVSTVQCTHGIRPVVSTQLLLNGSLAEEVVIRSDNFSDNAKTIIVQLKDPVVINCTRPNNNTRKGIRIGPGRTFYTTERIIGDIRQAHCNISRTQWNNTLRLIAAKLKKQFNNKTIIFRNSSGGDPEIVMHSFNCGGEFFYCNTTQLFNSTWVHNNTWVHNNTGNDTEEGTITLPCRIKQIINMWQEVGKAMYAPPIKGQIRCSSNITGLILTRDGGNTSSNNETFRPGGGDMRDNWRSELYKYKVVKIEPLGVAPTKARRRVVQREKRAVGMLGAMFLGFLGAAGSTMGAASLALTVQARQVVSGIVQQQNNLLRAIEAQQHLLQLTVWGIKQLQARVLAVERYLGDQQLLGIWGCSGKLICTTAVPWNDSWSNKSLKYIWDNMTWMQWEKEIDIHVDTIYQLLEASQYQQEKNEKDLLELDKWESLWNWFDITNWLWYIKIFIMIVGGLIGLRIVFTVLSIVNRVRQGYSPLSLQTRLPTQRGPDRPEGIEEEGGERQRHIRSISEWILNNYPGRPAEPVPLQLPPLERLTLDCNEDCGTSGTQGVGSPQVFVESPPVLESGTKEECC

`O=C(O)c1ccc(-c2ccc(/C=c3/sc4nc5ccccc5n4c3=O)o2)cc1Cl`: the IC50 is 13.7 µM (active).
